# Marks after values point to notes of the source that are not given here.
# What was measured:
# male ICR mice [1] = assay: Motor activity in mice not pretreated with reserpine (open-field test); type: in vivo, mouse; conditions: 50 mg/kg p.o.
# Description: We used male ICR mice six to seven weeks old (25 - 30 g) provided by the bioterium of the Departamento de Farmacia, Facultad de Ciencias, at Universidad Nacional de Colombia. The animals were kept under standard laboratory conditions, 12-hour light-dark cycles, and at room temperature (22 ± 1°C) with food and water available ad libitum.
# The open field was a square arena divided into 16 squares with surrounding walls to prevent escape. Animals were placed individually in the middle of the open field and the specific parameter evaluated was the number of cadres traversed during 5 minutes. The open field was cleaned with a water-alcohol (10%) solution before placing the next animal to eliminate possible bias due to odors left by previous subjects.
# male ICR mice [2] = assay: Reserpine model, reversal of hypokinesia (open-field test); type: in vivo, mouse; conditions: reserpine 3 mg/kg i.p., 100 mg/kg p.o.
# Description: (§2) In the reserpine model and l-dopa/carbidopa assays, the locomotor activity was evaluated in the open-field test. The open field was a square arena divided into 16 squares with surrounding walls to prevent escape. Animals were placed individually in the middle of the open field and the specific parameter evaluated was the number of cadres traversed during 5 minutes. The open field was cleaned with a water-alcohol (10%) solution before placing the next animal to eliminate possible bias due to odors left by previous subjects.
# The vehicle was a mixture of 15% propylene glycol, 15% glycerol, and enough distilled water to make up 100%. Locomotor activity was evaluated at 2 and 24 h after reserpine administration.
# male ICR mice [3] = assay: L-dopa/carbidopa plus MAO-B inhibitors in mice pretreated with reserpine (open-field test); type: in vivo, mouse; conditions: reserpine 3 mg/kg i.p., FCS005 100 mg/kg p.o. plus L-dopa:carbidopa 100:10 mg/kg i.p.
# Description: as §2
# Levodopa plus carbidopa were administrated i.p. 30 min later. Locomotor activity was evaluated at 2 and 24 h after the administration of reserpine.
# male ICR mice [4] = assay: Haloperidol-induced catalepsy, horizontal bar test; type: in vivo, mouse; conditions: FCS005 100 mg/kg p.o.
# Description: Haloperidol was administered to the animals to induce rigidity and akinesia (catalepsy) [25]^,[26]. Catalepsy was defined as the prolonged maintenance of both forepaws in an atypical position on a horizontal bar.
# The animals received haloperidol (3 mg/kg) i.p.; FCS005 (100 mg/kg, p.o.), levodopa:carbidopa (400 mg/kg:40 mg/kg; p.o.) or vehicle (p.o) was administrated 30 min before. The reversal of catalepsy was evaluated for 2 min 60 min after the administration of the treatments.
# [5] = tested on: brain homogenates of mice; assay: Ex vivo lipid peroxidation (TBARS) in brain homogenates of haloperidol-treated mice; parameters: species or system mouse; conditions: 10 days, FCS005 50 mg/kg p.o., levodopa:carbidopa 400:40 mg/kg p.o., haloperidol 1 mg/kg i.p., compared to control animals
# Description: (§1) Antioxidant activity was evaluated ex vivo. Mice were administered daily for 10 days with the treatments FCS005 (50 mg/kg, p.o.), levodopa:carbidopa (400 mg/kg:40 mg/kg, p.o.) or vehicle (p.o.) followed by haloperidol (1 mg/kg, i.p.) 30 min later. Then, the animals were killed by decapitation and the brains were removed, washed in 1% KCl, dissected on an ice-cold plate, and homogenized in 50 mM Tris-HCl buffer (pH 7.4). Homogenates were centrifuged (10,000 rpm for 10 min at 4°C). The final supernatant was stored at -20°C. The protein content of each sample was determined by the Bradford method.
# The index of lipid peroxidation was evaluated following the protocol described by Hijova, et al.[27]. The brain homogenate (450 µL), 1 mL trichloroacetic acid (10%), and 50 µL of 50 mM phosphate buffer (pH 7.4) were centrifuged at 1850 xg for 10 min at 4°C; then, 1 mL of thiobarbituric acid (0.67%) was added to 1 mL of the supernatant. This mixture was heated to 92°C for 30 min and then cooled in an ice bath (4°C) before the absorbance was measured at 532 nm. The results were expressed as thiobarbituric acid reactive substances (TBARS) in mmol/mL/mg of tissue protein.
# [6] = tested on: brain homogenates of mice; assay: Ex vivo protein carbonyl groups in brain homogenates of haloperidol-treated mice; parameters: species or system mouse; conditions: 10 days, FCS005 50 mg/kg p.o., levodopa:carbidopa 400:40 mg/kg p.o., haloperidol 1 mg/kg i.p., compared to control animals
# Description: as §1
# Quantification of protein carbonyl groups was determined by the technique of Levine, et al.[28], following the protocol described by Baltacioglu, et al.[29]. Briefly, 250 µL of 10 mM 2,4-dinitrophenylhydrazine (DNPH) or 250 µL of 2 M HCl were added to the brain homogenate (50 µL) for the sample or the blank, respectively. The samples were left at room temperature in the dark for 1 h and vigorously stirred every 15 min. Then, 500 µL of trichloroacetic acid (20%) was added. The samples were kept in an ice bath for 15 min and then centrifuged at 11,000 rpm for 5 min. […] The absorbance was determined at 360 nm. The content of carbonyl groups was calculated based on the molar extinction coefficient of DNPH (ε = 22 000 cm-1M-1) and expressed as nmol/mg protein [29].
# recombinant hMAO-A = target: T1, recombinant hMAO-A (Homo sapiens, UniProt P21397); assay: hMAO-A inhibitory activity (Amplex Red MAO kit)
# T1 sequence (P21397 1-527): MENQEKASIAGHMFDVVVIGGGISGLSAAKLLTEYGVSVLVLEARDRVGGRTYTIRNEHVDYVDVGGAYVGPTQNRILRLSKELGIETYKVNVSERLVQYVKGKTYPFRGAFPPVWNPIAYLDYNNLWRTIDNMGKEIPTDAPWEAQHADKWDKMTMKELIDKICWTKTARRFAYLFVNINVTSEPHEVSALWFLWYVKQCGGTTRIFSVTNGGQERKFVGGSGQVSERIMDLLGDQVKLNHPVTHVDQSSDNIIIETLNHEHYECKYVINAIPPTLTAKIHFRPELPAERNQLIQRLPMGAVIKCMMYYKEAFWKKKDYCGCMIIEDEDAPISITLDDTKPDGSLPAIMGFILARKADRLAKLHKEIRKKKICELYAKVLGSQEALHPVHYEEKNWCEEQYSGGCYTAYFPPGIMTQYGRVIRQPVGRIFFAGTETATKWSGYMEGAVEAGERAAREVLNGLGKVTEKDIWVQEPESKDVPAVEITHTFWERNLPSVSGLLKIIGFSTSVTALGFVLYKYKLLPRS
# Description: (§3) In the control experiments, the test drugs were replaced with dilutions of the vehicles. In addition, the specific fluorescence emission was calculated after subtraction of the background activity, which was determined from wells containing all components except the hMAO isoforms that were replaced by a sodium phosphate buffer solution.
# recombinant hMAO-B = target: T2, recombinant hMAO-B (Homo sapiens, UniProt P27338); assay: hMAO-B inhibitory activity (Amplex Red MAO kit)
# T2 sequence (P27338 1-520): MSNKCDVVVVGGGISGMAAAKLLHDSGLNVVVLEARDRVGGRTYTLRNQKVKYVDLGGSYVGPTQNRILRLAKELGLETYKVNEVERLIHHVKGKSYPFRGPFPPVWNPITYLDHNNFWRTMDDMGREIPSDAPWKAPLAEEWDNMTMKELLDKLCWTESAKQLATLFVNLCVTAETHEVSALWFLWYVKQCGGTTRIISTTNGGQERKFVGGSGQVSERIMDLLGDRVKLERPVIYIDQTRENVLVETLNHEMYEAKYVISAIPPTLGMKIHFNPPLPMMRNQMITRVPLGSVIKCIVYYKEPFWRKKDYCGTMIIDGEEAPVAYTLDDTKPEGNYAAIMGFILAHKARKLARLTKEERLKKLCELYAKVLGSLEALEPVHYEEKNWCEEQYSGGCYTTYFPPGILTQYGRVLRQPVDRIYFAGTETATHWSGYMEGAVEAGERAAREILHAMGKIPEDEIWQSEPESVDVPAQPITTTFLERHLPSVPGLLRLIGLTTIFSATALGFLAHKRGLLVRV
# Description: as §3
# [7] = tested on: MAO activities in rat brain mitochondria; parameters: method as in PMID 11169165; conditions: in vitro; cited from earlier work
IC50 (recombinant hMAO-A),Inhibition of MAO-A isoform activity (recombinant hMAO-A; at the highest concentration tested (100 µM)),IC50 (recombinant hMAO-B),"Selectivity index [IC50 (hMAO-A)]/[IC50 (hMAO-B)] (recombinant hMAO-B; hMAO-B selectivity ratio, for FCS005 hMAO-A IC50 assumed to be 100 µM (highest concentration tested))",Structure (SMILES),"Locomotor activity (number of cadres traversed in 5 min) (male ICR mice [1]; at 2 hours, p: 0.023 vs control)","Locomotor activity (number of cadres traversed in 5 min) (male ICR mice [1]; at 24 hours, p: 0.003 vs control)","Reversal of hypokinesia produced by reserpine (number of cadres traversed) (male ICR mice [2]; 2 h after reserpine, p: 0.007 vs control)","Reversal of hypokinesia produced by reserpine (number of cadres traversed) (male ICR mice [2]; 24 h after reserpine, p: 0.002 vs control)","Number of cadres traversed (male ICR mice [3]; 2 h after reserpine, p: 0.038 vs control)","Number of cadres traversed (male ICR mice [3]; 24 h after reserpine, p: 0.018 vs control)","Total catalepsy time (male ICR mice [4]; haloperidol 3 mg/kg i.p., levodopa:carbidopa 400:40 mg/kg p.o., at 60 min, p: 0.001)",Cataleptic effects of the treatment itself (male ICR mice [4]; horizontal bar test),Lipid peroxidation levels (TBARS) [5],Protein carbonyl groups [6],Selectivity of MAO inhibition (recombinant hMAO-B; MAO-B vs MAO-A),"Inhibitory actions on MAO activities, isoform preference [7]"
> 100 µM,did not inhibit MAO-A isoform activity,41.6 ± 2.79 µM,> 2.4^c,"Cc1coc2cc3oc(=O)ccc3cc12 [FCS005, 3-methyl-7H-furo[3,2-g]chromen-7-one]",significant decrease in the locomotor activity,significant decrease in the locomotor activity,reversal of hypokinesia,reversal of hypokinesia,increased the number of cadres traversed,increased the number of cadres traversed,significant decrease in the total catalepsy time,did not show any cataleptic effects,lower,lower,selective inhibitory activity towards MAO-B,–
–,–,–,–,O=c1ccc2cc3ccoc3cc2o1 [Psoralen],–,–,–,–,–,–,–,–,–,–,–,preferentially inhibiting MAO-A activity over MAO-B activity

# Reference: publication PMC7357371, “Coumarin analogue 3-methyl-7H-furo[3,2-g]chromen-7-one as a possible antiparkinsonian agent” (Biomédica, 2019)
